# Test results taken from US12414907B2, “Peptide having hair growth promoting activity and use thereof” (CAREGEN CO., LTD., priority 2019, dated 2025).
# Columns and labels:
# AKT = assay: Western blotting of phosphorylated AKT in dermal papilla cells; assay type: cell-based, human; details: peptide 0.5 uM, 5 uM or 50 uM, serum-free medium, 30 minutes; FIG. 2
# Method: (§1) The effect of the peptide consisting of the amino acid sequence of SEQ ID NO: 1 on the activation of proliferation-related factors in hair follicle cells was to be confirmed. In detail, human dermal papilla cells were seeded in a 6-well plate at a density of 4×10^5 cells/well, and cultured for 16 hours. The culture medium was replaced with a serum-free medium, and the peptide was added thereto at a concentration of 0.5 uM, 5 uM, or 50 uM, and the cells were cultured for 30 minutes. Here, as a positive control group, 5 uM of Minoxidil was treated. Cell lysates were prepared by harvesting the cell, and then, western blotting was performed with respect to phosphorylated ERK and phosphorylated AKT by using p-ERK antibodies and p-AKT antibodies (Santacruz biotechnology, USA).
# ERK = assay: Western blotting of phosphorylated ERK in dermal papilla cells; assay type: cell-based, human; details: peptide 0.5 uM, 5 uM or 50 uM, serum-free medium, 30 minutes; FIG. 2
# Method: as §1
# DKK-1 = assay: Western blotting of DKK-1 expression in DHT-stimulated dermal papilla cells; assay type: cell-based, human; details: DHT 10 ug/ml as stimulator, peptide 0.5 uM, 5 uM or 50 uM, 24 hours; FIG. 4
# Method: The inhibitory effect of the peptide consisting of the amino acid sequence of SEQ ID NO: 1 on the expression of DKK-1, which is a hair loss-related factor, in hair follicle cells was to be confirmed. In detail, human dermal papilla cells were seeded in a 6-well plate at a density of 4x10^5 cells/well, and cultured for 16 hours. After the culture medium was replaced with a serum-free medium, dihydrotestosterone (DHT) as a stimulator was added thereto at a concentration of 10 ug/ml while peptide was added thereto at a concentration of 0.5 uM, 5 uM, or 50 uM. Then, the cells were cultured for 24 hours. The cells were harvested and nuclear proteins thereof were isolated by using a nuclear protein extraction kit. Then, western blotting was performed by using DKK-1 antibodies (Santacruz biotechnology, USA). Here, DHT is known as a hair loss hormone that increases the expression of DKK-1, which is a hair loss-inducible factor, by activating an androgen receptor.
# [1] = system: human hair follicle dermal papilla cells; assay: Proliferation of human hair follicle dermal papilla cells (MTT method); assay type: cell-based; details: peptide 0.5 uM, 5 uM or 50 uM, serum-free medium, 72 hours; FIG. 1
# Method: The promoting effect of the peptide consisting of the amino acid sequence of SEQ ID NO: 1 on the proliferation of hair follicle cells was to be confirmed. In detail, human hair follicle dermal papilla cells were seeded in a 96-well plate at a density of 5×10^3 cells/well, and cultured for 16 hours. The culture medium was replaced with a serum-free medium, and the peptide was added thereto at a concentration of 0.5 uM, 5 uM, or 50 uM, and the cells were cultured for 72 hours. Here, as a positive control group, 5 uM of Minoxidil which is used as a hair loss treatment was treated. Afterwards, an MTT method was performed to measure the cell proliferation. In detail, 4 ug/ml of 3-(4,5-dimethylthiazol-2-yl)-2,5-diphenyltetrazolium bromide (MTT) was treated, and 4 hours later, DMSO was treated thereon to dissolve formazan. Then, the absorbance at 560 nm was measured by using a spectrophotometer.
# TGFβ-1 = assay: PCR of TGFβ-1 expression in dermal papilla cells; assay type: cell-based, human; details: peptide 0.5 uM, 5 uM or 50 uM, serum-free medium, 24 hours, PCR with GAPDH; FIG. 5
# Method: The inhibitory effect of the peptide consisting of the amino acid sequence of SEQ ID NO: 1 on the expression of TGFβ-1, which is a hair loss-related factor, in hair follicle cells was to be confirmed. In detail, human dermal papilla cells were seeded in a 6-well plate at a density of 4x10^5 cells/well, and cultured for 16 hours. The culture medium was replaced with a serum-free medium, and the peptide was added thereto at a concentration of 0.5 uM, 5 uM, or 50 uM, and the cells were cultured for 24 hours. Here, as a positive control group, 5 uM of Minoxidil was treated. After the cells were harvested, RNA was extracted therefrom and used for synthesis of cNDA by using a cDNA synthesis kit and PCR pre-mix. TGFβ-1, as an androgen-inducible factor in hair follicle cells, is known to be related to hair loss.
# β-catenin = assay: Western blotting of nuclear β-catenin in dermal papilla cells; assay type: cell-based, human; details: peptide 0.5 uM, 5 uM or 50 uM, serum-free medium, 24 hours, nuclear proteins; FIG. 3
# Method: The effect of the peptide consisting of the amino acid sequence of SEQ ID NO: 1 on the activation of a proliferation mechanism of hair follicle cells was to be confirmed. In detail, human dermal papilla cells were seeded in a 6-well plate at a density of 4×10^5 cells/well, and cultured for 16 hours. The culture medium was replaced with a serum-free medium, and the peptide was added thereto at a concentration of 0.5 uM, 5 uM, or 50 uM, and the cells were cultured for 24 hours. Here, as a positive control group, 5 uM of Minoxidil was treated. The cells were harvested and nuclear proteins thereof were isolated by using a nuclear protein extraction kit (Merck, USA). Then, western blotting was performed with respect to β-catenin which is a factor related to proliferation of the dermal papilla cells by using β-catenin antibodies (Santacruz biotechnology, USA).
substance,measurement,setting,value
WQNMRL [SEQ ID NO: 1],phosphorylation of AKT,AKT,induced
same,phosphorylation of ERK,ERK,induced
same,expression of DKK-1,DKK-1,inhibit the expression of DKK-1
same,"proliferation of human dermal papilla cells (MTT, absorbance at 560 nm)",[1],promoted the proliferation of human dermal papilla cells
same,expression of TGFβ-1,TGFβ-1,inhibit the expression of TGFβ-1
same,movement of β-catenin from the cytoplasm to the nucleus,β-catenin,increased
